In general, EC50 refers to the concentration at which the effect is half-maximal. A lower EC50 goes with higher potency in that assay.

FXR, sequence (Q96RI1 262-486): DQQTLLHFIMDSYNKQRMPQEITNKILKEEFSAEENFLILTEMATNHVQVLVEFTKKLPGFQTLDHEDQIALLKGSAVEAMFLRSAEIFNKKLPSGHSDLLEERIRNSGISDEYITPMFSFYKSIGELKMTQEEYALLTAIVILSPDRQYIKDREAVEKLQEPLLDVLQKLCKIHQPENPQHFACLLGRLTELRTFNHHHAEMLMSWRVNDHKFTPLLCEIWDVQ

This assay concerns the target FXR (Homo sapiens (Human), UniProt Q96RI1). Nature of the assay: FXR EC50 (FXR agonist activity reported with each example). Type of assay: cell-based.
The compound `O=C(O)c1cccc2nc(C34CCC(CCc5c(-c6ccccc6OC(F)(F)F)noc5C5CC5)(CC3)CC4)sc12` [Example 456, 2-(4-(2-(5-cyclopropyl-3-(2-(trifluoromethoxy)phenyl)isoxazol-4-yl)ethyl)bicyclo[2.2.2]octan-1-yl)benzo[d]thiazole-7-carboxylic acid] yielded a concentration giving a half-maximal response (EC50) of 22 nM.

On to `CC(C)Oc1nc(C(=O)O)cc2ccc(OCC34CCC(OCc5c(-c6c(Cl)cncc6Cl)noc5C5CC5)(CC3)CC4)cc12` [Example 357, 7-((4-((5-cyclopropyl-3-(3,5-dichloropyridin-4-yl)isoxazol-4-yl)methoxy)bicyclo[2.2.2]octan-1-yl)methoxy)-1-isopropoxyisoquinoline-3-carboxylic acid], for which the EC50 stood at 13 nM.

With `COc1nc(C(=O)O)cc2ccc(C#CC34CCC(OCc5c(-c6c(Cl)cncc6Cl)noc5C5CC5)(CC3)CC4)cc12` [Example 521, 7-((4-((5-cyclopropyl-3-(3,5-dichloropyridin-4-yl)isoxazol-4-yl)methoxy)bicyclo[2.2.2]octan-1-yl)ethynyl)-1-methoxyisoquinoline-3-carboxylic acid], the EC50 was 40 nM.

With `O=C(O)c1ccc(C(F)(F)F)c2nc(C34CCC(OCc5c(-c6c(Cl)cncc6Cl)noc5C5CC5)(CC3)CC4)ccc12` [Example 398], the concentration giving a half-maximal response (EC50) turned out to be 30 nM. This EC50 and that of the compound before are within 1.5-fold of each other.

As for `O=C(O)c1cccc(-c2noc(C34CCC(/C=C/c5c(-c6c(Cl)cncc6Cl)noc5C5CC5)(CC3)CO4)n2)c1` [Example 467, (E)-3-(5-(4-(2-(5-cyclopropyl-3-(3,5-dichloropyridin-4-yl)isoxazol-4-yl)vinyl)-2-oxabicyclo[2.2.2]octan-1-yl)-1,2,4-oxadiazol-3-yl)benzoic acid], the EC50 amounted to 260 nM.

Regarding `O=C(O)c1csc(C23CCC(COCc4c(-c5ccccc5OC(F)(F)F)noc4C4CC4)(CC2)CO3)n1` [Example 214], it took 1400 nM to reach a half-maximal effect (EC50).

The compound `O=C(O)c1cc(-c2noc(C34CCC(OCc5c(-c6c(Cl)cncc6Cl)noc5C5CC5)(CC3)CC4)n2)cc(OCC(F)(F)F)n1` [Example 263, 4-(5-(4-((5-cyclopropyl-3-(3,5-dichloropyridin-4-yl)isoxazol-4-yl)methoxy)bicyclo[2.2.2]octan-1-yl)-1,2,4-oxadiazol-3-yl)-6-(2,2,2-trifluoroethoxy)picolinic acid] yielded a 50% effective concentration (EC50) of 95 nM.

In turn, `O=C(O)c1cc(C(F)(F)F)cc2nc(C34CCC(OCc5c(-c6c(Cl)cncc6Cl)noc5C5CC5)(CC3)CC4)sc12` [Example 434, 2-(4-((5-cyclopropyl-3-(3,5-dichloropyridin-4-yl)isoxazol-4-yl)methoxy)bicyclo[2.2.2]octan-1-yl)-5-(trifluoromethyl)benzo[d]thiazole-7-carboxylic acid] registered an EC50 of 18 nM. This EC50 lies about 5.3-fold lower than the previous one.

`O=C(O)c1cnn(CC23CCC(OCc4c(-c5c(Cl)cccc5Cl)noc4C4CC4)(CC2)CC3)c1` [Example 76, 1-((4-((5-cyclopropyl-3-(2,6-dichlorophenyl)isoxazol-4-yl)methoxy)bicyclo[2.2.2]octan-1-yl)methyl)-1H-pyrazole-4-carboxylic acid] showed a half-maximal effective concentration (EC50) of 290 nM.

`O=C(O)c1cn(CC23CCC(OCc4c(-c5c(Cl)cccc5Cl)noc4C4CC4)(CC2)CC3)nc1C(F)F` [Example 268, 1-((4-((5-cyclopropyl-3-(2,6-dichlorophenyl)isoxazol-4-yl)methoxy)bicyclo[2.2.2]octan-1-yl)methyl)-3-(difluoromethyl)-1H-pyrazole-4-carboxylic acid] had an EC50 of 460 nM. This EC50 is about 1.6-fold higher than that of the compound before.

`O=C(O)c1ccc2nc(C34CCC(OCc5c(-c6ccccc6OC(F)(F)F)noc5C5CC5)(CC3)CC4)ncc2c1` [Example 62] came in with an EC50 of 1300 nM.

In the case of `O=C(O)c1cn2ccc(C#CC34CCC(OCc5c(-c6c(Cl)cncc6Cl)noc5C5CC5)(CC3)CC4)cc2n1` [Example 394], a half-maximal response (EC50) required 180 nM.

These data come from patent publication US10730863B2, “Bridged bicyclic compounds as farnesoid X receptor modulators” (BRISTOL-MYERS SQUIBB COMPANY, priority 2017, dated 2020).
